Series [1] is described as follows: Induction of phospholidosis in human HepG2 cells incubated overnight by […] in presence of fluorescent labeled phospholipid probe NBD-PE. The class given is cell-based. The conditions noted are these: read-out: A50.
A short description of series [2]: Distribution coefficient, logD of the compound at pH 7.4. Format: physicochemical. Particulars: octanol/water.
Series [3] deals with T1, Beta-3 adrenergic receptor (Homo sapiens, UniProt P13945). Put plainly: Agonist activity at human beta3 adrenergic receptor expressed in CHO cells assessed as accumulation of cAMP after 30 mins by TR-FRET assay relative to (R)-(-)-isoproterenol. Format: functional, cell-based.
Series [4] can be described thus: Stability in human plasma assessed as parent compound remaining at 24 hrs by LC-MS analysis. The class given is ADME, cell-free. Particulars: read-out: Stability.
A short description of series [5]: Stability in rat plasma assessed as parent compound remaining at 24 hrs by LC-MS analysis. The class given is ADME, cell-free. Particulars: read-out: Stability.
Series [6] in a line: Stability in dog plasma assessed as parent compound remaining at 24 hrs by LC-MS analysis. The class given is ADME, cell-free, Canis lupus familiaris. The conditions noted are these: read-out: Stability.
The nature of series [7]: Stability in rhesus monkey plasma assessed as parent compound remaining at 24 hrs by LC-MS analysis. Format: ADME, cell-free, Macaca mulatta. Particulars: read-out: Stability.
For series [8], the system named is Rattus norvegicus. Nature of the series: Increase in circulating glycerol level in iv infused Sprague-Dawley rat after 45 mins by liquid chromatography-tandem mass spectrometric analysis. Format: functional.
The test system of series [9] is Rattus norvegicus. Nature of the series: Increase in circulating free fatty acid level in iv infused Sprague-Dawley rat after 45 mins by liquid chromatography-tandem mass spectrometric analysis. The class given is functional.
For series [10], the target named is Sodium-dependent serotonin transporter (Homo sapiens, UniProt P31645). Put plainly: Inhibition of human SERT expressed in HEK293 cells preincubated for 30 mins followed by fluorescent substrate addition measured after 30 mins by plate reader analysis. The class given is cell-based.
Chain of Sodium-dependent serotonin transporter (P31645 whole entry): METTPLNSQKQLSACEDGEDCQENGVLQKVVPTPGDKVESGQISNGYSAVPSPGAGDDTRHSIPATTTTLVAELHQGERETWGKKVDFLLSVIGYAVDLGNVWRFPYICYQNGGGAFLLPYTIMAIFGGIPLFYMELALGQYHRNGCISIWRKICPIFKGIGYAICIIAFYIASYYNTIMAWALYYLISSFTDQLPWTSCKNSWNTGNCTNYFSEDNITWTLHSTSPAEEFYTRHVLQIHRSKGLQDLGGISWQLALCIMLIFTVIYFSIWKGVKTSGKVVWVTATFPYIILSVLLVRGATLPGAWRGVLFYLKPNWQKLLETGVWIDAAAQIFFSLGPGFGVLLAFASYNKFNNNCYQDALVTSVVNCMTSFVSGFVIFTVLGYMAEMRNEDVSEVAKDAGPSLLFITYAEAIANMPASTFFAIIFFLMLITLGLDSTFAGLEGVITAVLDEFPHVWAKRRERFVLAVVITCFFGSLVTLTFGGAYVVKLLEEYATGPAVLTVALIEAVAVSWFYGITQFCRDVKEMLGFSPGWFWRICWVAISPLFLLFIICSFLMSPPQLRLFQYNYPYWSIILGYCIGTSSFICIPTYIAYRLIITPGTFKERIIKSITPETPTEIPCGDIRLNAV
The target of series [11] is Sodium channel protein type 2 subunit alpha (Homo sapiens, UniProt Q99250). Put plainly: Inhibition of human Nav1.2 channel expressed in Xenopus oocytes by two-intracellular microelectrode voltage clamp method. Format: cell-based.
Chain of Sodium channel protein type 2 subunit alpha (Q99250 whole entry, looked up): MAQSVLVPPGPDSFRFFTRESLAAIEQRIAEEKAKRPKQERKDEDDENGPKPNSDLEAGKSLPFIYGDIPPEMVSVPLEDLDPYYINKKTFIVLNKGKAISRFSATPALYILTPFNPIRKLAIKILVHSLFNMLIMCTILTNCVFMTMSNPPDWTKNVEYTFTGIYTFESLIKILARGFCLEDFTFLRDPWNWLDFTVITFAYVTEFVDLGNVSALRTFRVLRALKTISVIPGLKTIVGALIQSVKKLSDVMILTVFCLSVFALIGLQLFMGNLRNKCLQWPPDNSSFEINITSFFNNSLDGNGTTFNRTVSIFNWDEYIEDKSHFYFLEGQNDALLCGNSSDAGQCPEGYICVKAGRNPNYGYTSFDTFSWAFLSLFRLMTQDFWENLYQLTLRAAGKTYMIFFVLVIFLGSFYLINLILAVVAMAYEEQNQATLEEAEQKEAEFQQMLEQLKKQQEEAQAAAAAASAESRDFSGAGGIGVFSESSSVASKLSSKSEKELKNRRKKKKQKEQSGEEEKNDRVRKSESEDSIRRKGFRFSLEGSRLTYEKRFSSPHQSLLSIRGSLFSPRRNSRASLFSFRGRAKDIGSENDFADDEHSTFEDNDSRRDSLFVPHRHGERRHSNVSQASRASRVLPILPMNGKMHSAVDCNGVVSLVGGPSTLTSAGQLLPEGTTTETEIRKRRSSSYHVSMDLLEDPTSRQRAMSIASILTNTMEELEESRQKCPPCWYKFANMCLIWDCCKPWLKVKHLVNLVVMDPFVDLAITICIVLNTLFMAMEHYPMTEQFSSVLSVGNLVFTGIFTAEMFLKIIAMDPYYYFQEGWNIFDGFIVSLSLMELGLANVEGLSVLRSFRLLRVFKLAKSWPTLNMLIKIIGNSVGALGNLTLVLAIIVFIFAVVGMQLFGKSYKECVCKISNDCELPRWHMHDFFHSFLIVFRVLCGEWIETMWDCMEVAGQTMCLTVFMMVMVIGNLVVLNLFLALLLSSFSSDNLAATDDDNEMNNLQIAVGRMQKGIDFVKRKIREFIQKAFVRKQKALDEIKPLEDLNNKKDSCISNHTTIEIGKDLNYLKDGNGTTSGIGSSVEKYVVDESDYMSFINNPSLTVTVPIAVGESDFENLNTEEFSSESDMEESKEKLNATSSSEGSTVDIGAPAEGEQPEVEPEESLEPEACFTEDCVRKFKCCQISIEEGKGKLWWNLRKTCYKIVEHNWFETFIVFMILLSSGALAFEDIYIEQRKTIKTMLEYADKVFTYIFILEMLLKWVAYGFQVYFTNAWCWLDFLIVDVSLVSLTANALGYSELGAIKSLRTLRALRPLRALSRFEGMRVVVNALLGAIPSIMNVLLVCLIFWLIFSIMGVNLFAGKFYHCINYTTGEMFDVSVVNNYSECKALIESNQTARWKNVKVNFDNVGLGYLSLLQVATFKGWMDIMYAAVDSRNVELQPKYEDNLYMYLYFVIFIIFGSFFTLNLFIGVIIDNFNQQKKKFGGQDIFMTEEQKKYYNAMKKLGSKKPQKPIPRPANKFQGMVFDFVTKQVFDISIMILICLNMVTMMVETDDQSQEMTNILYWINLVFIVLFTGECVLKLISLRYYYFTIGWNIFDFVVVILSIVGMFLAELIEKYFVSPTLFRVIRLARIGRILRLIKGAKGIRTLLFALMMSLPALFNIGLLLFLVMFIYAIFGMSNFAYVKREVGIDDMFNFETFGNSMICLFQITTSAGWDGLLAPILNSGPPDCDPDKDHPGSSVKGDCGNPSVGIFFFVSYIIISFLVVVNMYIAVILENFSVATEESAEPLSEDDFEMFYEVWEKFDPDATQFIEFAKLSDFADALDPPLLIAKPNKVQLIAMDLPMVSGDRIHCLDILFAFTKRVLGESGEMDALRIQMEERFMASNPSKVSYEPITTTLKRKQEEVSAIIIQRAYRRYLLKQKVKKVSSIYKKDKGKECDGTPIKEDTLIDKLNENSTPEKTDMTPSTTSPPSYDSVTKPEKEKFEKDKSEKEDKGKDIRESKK
Series [12] has as its target Voltage-gated inwardly rectifying potassium channel KCNH2 (Homo sapiens, UniProt Q12809). Nature of the series: Binding affinity to human ERG channel.
The target in series [13] is T1, Beta-3 adrenergic receptor. Nature of the series: Agonist activity at human beta3 adrenergic receptor expressed in CHO cells assessed as accumulation of cAMP after 30 mins by TR-FRET assay. The class given is functional, cell-based. For orientation: In TR-FRET formats the signal depends on donor and acceptor labels being close together.
Target sequence in this assay (P13945 whole entry): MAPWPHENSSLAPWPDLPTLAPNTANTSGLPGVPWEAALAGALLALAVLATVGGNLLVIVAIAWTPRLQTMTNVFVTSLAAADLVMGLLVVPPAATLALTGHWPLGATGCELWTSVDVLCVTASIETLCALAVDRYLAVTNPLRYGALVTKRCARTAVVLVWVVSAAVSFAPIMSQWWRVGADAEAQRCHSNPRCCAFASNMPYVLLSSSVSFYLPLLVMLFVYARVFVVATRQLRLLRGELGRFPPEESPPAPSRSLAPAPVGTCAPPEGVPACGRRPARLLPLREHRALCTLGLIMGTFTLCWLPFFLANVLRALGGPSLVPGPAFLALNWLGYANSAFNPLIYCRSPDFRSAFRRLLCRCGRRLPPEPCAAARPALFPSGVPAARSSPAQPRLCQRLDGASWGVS
The target in series [14] is Beta-2 adrenergic receptor (Homo sapiens, UniProt P07550).
Chain of Beta-2 adrenergic receptor (P07550 whole entry): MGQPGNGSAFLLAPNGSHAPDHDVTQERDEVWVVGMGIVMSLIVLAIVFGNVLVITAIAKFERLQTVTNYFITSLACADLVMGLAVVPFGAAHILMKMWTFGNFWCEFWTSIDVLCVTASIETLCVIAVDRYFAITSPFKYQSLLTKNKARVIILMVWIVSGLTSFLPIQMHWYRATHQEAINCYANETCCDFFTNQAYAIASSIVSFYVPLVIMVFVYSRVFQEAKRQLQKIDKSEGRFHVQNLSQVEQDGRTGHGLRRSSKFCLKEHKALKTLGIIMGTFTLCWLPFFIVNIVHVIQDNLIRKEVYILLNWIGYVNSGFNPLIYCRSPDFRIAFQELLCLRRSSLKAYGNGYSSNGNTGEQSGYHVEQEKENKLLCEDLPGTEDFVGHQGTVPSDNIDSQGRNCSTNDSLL
Description: Displacement of [125]I-cyanopindolol from human recombinant beta2 adrenergic receptor after 1 hr by scintillation counting method
In series [15] the target is Beta-1 adrenergic receptor (Homo sapiens, UniProt P08588).
Chain of Beta-1 adrenergic receptor (P08588 whole entry): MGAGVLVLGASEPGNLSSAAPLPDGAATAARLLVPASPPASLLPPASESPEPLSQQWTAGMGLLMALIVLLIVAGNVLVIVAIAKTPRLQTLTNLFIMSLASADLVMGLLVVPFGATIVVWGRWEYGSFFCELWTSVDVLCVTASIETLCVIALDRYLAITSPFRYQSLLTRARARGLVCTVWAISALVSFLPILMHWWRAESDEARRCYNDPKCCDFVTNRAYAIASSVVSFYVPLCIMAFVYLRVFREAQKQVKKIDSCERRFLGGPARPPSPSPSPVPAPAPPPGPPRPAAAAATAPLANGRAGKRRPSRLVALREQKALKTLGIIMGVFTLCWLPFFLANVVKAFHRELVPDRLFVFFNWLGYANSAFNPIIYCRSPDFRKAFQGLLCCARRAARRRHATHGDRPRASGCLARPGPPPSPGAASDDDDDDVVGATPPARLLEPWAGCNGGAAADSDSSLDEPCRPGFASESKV
Description: Displacement of [125]I-cyanopindolol from recombinant human beta1 adrenergic receptor after 1 hr by scintillation counting method
The target of series [16] is Voltage-dependent L-type calcium channel subunit alpha-1C (Homo sapiens, UniProt Q13936). Put plainly: Displacement of [3H]-diltiazem from human Cav1.2 channel.
The nature of series [17]: Plasma clearance in rat at 1 mg/kg, iv or 2 mg/kg, po. Format: ADME, organism-based.
Series [18] is described as follows: Half life in rat at 1 mg/kg, iv or 2 mg/kg, po. The class given is ADME, organism-based. The conditions noted are these: in vivo.
The subject of series [19] is Rattus norvegicus. Put plainly: Dose normalized total AUC in rat at 2 mg/kg, po. Format: ADME, organism-based. The conditions noted are these: in vivo.
A short description of series [20]: Oral bioavailability in rat at 2 mg/kg. The class given is ADME, organism-based. The conditions noted are these: in vivo.
For the next series, the target named is Cytochrome P450 3A4 (Homo sapiens, UniProt P08684). Nature of the series: Inhibition of CYP3A4 in human liver microsomes assessed as testosterone 6beta-hydroxylation. The class given is ADME. For orientation: Microsomes from liver hold many membrane-bound enzymes, among them those of drug oxidation.
In a further series the target is Cytochrome P450 2D6 (Homo sapiens, UniProt P10635). Nature of the series: Inhibition of CYP2D6 in human liver microsomes assessed as dextraomethorphan O-demethylation. Format: ADME.
A further series has as its target Cytochrome P450 2C9 (Homo sapiens, UniProt P11712). Nature of the series: Inhibition of CYP2C9 in human liver microsomes assessed as diclofenac alpha'-hydroxylation. The class given is ADME.

Chain of Voltage-gated inwardly rectifying potassium channel KCNH2 (Q12809 whole entry): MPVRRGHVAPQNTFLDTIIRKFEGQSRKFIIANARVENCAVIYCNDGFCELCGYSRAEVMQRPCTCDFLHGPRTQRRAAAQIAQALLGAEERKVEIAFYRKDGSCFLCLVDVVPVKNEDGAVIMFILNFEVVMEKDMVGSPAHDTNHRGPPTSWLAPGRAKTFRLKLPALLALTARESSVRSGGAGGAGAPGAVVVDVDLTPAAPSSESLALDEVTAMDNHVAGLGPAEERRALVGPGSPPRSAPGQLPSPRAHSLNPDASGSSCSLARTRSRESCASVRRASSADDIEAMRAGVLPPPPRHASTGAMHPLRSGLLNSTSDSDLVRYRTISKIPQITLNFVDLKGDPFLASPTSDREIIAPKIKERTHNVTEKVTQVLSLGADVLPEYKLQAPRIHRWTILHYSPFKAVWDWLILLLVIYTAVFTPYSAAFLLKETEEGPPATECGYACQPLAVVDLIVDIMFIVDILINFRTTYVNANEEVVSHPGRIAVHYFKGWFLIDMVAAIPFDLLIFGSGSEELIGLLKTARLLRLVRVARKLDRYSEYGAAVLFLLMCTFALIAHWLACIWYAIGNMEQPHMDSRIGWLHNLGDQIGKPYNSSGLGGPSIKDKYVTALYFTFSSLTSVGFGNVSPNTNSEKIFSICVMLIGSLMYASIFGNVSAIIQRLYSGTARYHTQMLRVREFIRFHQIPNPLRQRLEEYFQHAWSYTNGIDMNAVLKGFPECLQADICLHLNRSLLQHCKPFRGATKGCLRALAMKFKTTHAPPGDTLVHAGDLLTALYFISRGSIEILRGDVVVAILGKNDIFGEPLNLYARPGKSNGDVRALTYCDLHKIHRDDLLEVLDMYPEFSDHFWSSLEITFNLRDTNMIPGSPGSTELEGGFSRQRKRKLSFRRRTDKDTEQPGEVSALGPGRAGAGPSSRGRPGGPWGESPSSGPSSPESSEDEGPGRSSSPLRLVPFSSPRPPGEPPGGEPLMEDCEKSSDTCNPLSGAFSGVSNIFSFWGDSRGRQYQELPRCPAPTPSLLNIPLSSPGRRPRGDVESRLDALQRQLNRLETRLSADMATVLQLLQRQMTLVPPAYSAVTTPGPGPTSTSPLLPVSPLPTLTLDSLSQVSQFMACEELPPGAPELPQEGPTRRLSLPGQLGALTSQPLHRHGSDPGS

With `O=C(Nc1ccc(C[C@@H]2CC[C@H]([C@H](O)c3cccnc3)N2)cc1)[C@@H]1CCc2ccnn21`, the AC50 in series [1] stood at 94 µM. In addition, the pH-dependent lipophilicity (logD) – broadly, the decadic logarithm of the distribution of all forms, ionised or not, between an organic phase and buffer at a given pH – in series [2] was 0.9. Moreover, in series [3], the max activation was found to be 84%. The remaining at 24 h in series [4] worked out at 0%; in series [5], 97%; in series [6] it was 100%; in [7], 87%.
For the compound `Nc1nc(CC(=O)Nc2ccc(CCNC[C@H](O)c3ccccc3)cc2)cs1` [MIRABEGRON], the Activity entry with Rattus norvegicus [8] and with Rattus norvegicus [9] was “Dose-dependent effect” each time. The minimal effective dose in the series on Rattus norvegicus [8] (0.75 h, read-out: MED) came to 0.3 mg/kg; with Rattus norvegicus [9] (0.75 h, read-out: MED), 0.3 mg/kg.
`Nc1nc(CC(=O)Nc2ccc(C[C@@H]3CC[C@H]([C@H](O)c4ccccc4)N3)cc2)cs1`: the IC50 – broadly, the point on the concentration scale where inhibition reaches its midpoint – in series [10] is 1.4 µM; in series [11] it was 30 µM; in series [12], 19 µM; in series [14], greater than 20 µM; in [15] it was greater than 20 µM. Further, the logD in series [2] came out at 1.2. The max activation in [3] came to 92%. In addition, the EC50 (usually the concentration that produces a half-maximal response) in [13] came to 0.0009 µM.
As to `C[C@@H](C(=O)Nc1ccc(C[C@@H]2CC[C@H]([C@H](O)c3cccnc3)N2)cc1)n1ncccc1=O`, the AC50 in [1] is greater than 100 µM. Further, the IC50 in series [10] is 0.8 µM; in series [11] it was greater than 30 µM; in series [16], greater than 30 µM; in series [12], greater than 30 µM; in [14] it was greater than 20 µM; in series [15], greater than 20 µM. The max activation in series [3] was determined as 87%. Further, in series [13], the concentration for a half-maximal effect (EC50) came out at 0.0026 µM. In [17], the clearance was found to be 12 mL/min/kg. Also, in series [18], the half-life (commonly how long it takes for the measured level to halve) was 8 h. Further, the AUC/dose entry in the series with Rattus norvegicus [19] (BLD = below limit of detection) is on record as “BLD”. For the same compound, in series [20], the bioavailability (commonly the share of a dose that reaches the circulation, judged against a reference dose that is usually intravenous) was less than 1%.
With `O=C(Cn1cnc2ccccc2c1=O)Nc1ccc(C[C@@H]2CC[C@H]([C@H](O)c3ccccc3)N2)cc1`, the AC50 in series [1] is 8.6 µM. For the same compound, the IC50 in series [10] is 0.2 µM; in series [11] it was greater than 30 µM; in series [16], 13 µM; on Cytochrome P450 3A4 it was 96 µM; at Cytochrome P450 2D6 it was 31 µM; at Cytochrome P450 2C9 it was greater than 100 µM. Besides, the half-maximal inhibitory concentration (IC50) in series [14] is 2.2 µM; in series [15], greater than 20 µM. Besides, the logD in [2] was 2. Also, the max activation in series [3] worked out at 108%. In [13], the EC50 is 0.0017 µM.
For `O=C(Cn1cccnc1=O)Nc1ccc(C[C@@H]2CC[C@H]([C@H](O)c3ccccc3)N2)cc1`, in series [1], the AC50 is greater than 100 µM. Also, the IC50 is 2.5 µM in [10]; greater than 30 µM in series [11]; greater than 30 µM in [16]; greater than 30 µM in series [12]; greater than 100 µM at Cytochrome P450 3A4; 39 µM at Cytochrome P450 2D6. Also, the results for the IC50 (at Cytochrome P450 2C9; in series [14]; in series [15]) were greater than 100 µM, greater than 20 µM and greater than 20 µM, respectively. In series [2], the logD turned out to be 0.6. For the same compound, the max activation in [3] was 113%. In series [13], the EC50 worked out at 0.0022 µM. The compound further showed a clearance in [17] of 24 mL/min/kg. In [18], the half-life was 3 h. In addition, the AUC/dose with Rattus norvegicus [19] amounted to 24 nM·h/mg/kg. In [20], this compound came in with a bioavailability of 1%.
In the case of `O=C(Cn1ccccc1=O)Nc1ccc(C[C@@H]2CC[C@H]([C@H](O)c3ccccc3)N2)cc1`, the AC50 in [1] is greater than 100 µM. The half-maximal inhibitory concentration (IC50) in [10] is 1.1 µM; in series [11], greater than 30 µM; in series [16], greater than 30 µM; in series [12], greater than 30 µM; in series [14], greater than 20 µM; in series [15] it was greater than 20 µM. Also, in [3], the max activation turned out to be 97%. The EC50 in [13] was determined as 0.0043 µM.
Consider `O=C(Nc1ccc(C[C@@H]2CC[C@H]([C@H](O)c3cccnc3)N2)cc1)[C@@H]1CCc2scnc21`, for which, in series [1], the AC50 is 79 µM. In series [2], this compound came in with a logD of 1.1. Further, in [3], the max activation was determined as 82%. Also, the results for the remaining at 24 h in [4] and in series [5] were 1% and 79%, respectively.
With `O=C(Cn1cnccc1=O)Nc1ccc(C[C@@H]2CC[C@H]([C@H](O)c3ccccc3)N2)cc1`, in [1], the AC50 was greater than 100 µM. Moreover, the IC50 in series [10] is 0.7 µM; in series [11], greater than 30 µM; in series [16], greater than 30 µM; in series [12], greater than 30 µM; in series [14], greater than 20 µM; in series [15] it was greater than 20 µM. Further, the max activation in [3] was 91%. The half-maximal effective concentration (EC50) in [13] is 0.0039 µM.

The values above are taken from ChEMBL document CHEMBL3763146 (J Med Chem, 2016).
